{
  "source": "patent US20040175568A1",
  "about": "“Fullerodendrimer-comprising film” (priority 2003, published 2004)",
  "assay": "Oxidation and reduction potential of fullerodendrimer",
  "assay_type": "physicochemical",
  "data": [
    {"smiles": "c12c3c4c5c1c1c6c7c2c2c8c3c3c9c4c4c%10c5c5c1c1c6c6c%11c7c2c2c7c8c3c3c8c9c4c4c9c%10c5c5c1c1c6c6c%11c2c2c7c3c3c8c4c4c9c5c1c1c6c2c3c41", "note": "[Example C60, C60]", "values": [
      {"measurement": "first oxidation potential", "result": "+1,120 mV"},
      {"measurement": "first reduction potential", "result": "−1,120 mV"}
    ]}
  ]
}
